Measurements reported in publication PMC4912613, “A broad analysis of resistance development in the malaria parasite” (Nature Communications, 2016).
Read-outs that look alike come from different tables or passages of the source.

Key:
hsp90 (D88Y, parent Dd2) = assay: Cross-resistance EC50 assay, hsp90; format: cell-based; conditions: Plasmodium falciparum, SYBR green 72 hour assay, synchronized parasites, 384-well format
Description: (§1) To evaluate potential overlapping activity against known antimalarial drug targets, we performed dose-response studies with each compound against our assembled set of drug-resistant lines and their corresponding parents, in an asexual blood stage proliferation assay (Table 1). Comparisons were made to the drug-sensitive strain 3D7 when a parent was unavailable (TM90C2A, W2 and Dd2). As laboratories conducted EC50 assays with different strains and protocols, all comparisons were made between assays from the same laboratory and under the same assay conditions. Compounds displaying >5-fold EC50 shifts relative to the parent or sensitive strain were flagged as having potentially non-novel targets. Average fold shifts per strain ranged from 0.82 to 2.34, with a median of 1.23 indicating there was not common resistance to any one resistant clone. No resistance patterns were observed when classifying the compounds based on chemical structure, but this was not surprising given the diversity of compounds chosen. On the other hand, given that these confirmed compounds were derived from larger unconfirmed hit lists to which some filtration criteria may have been applied (for example, elimination of obvious dihydrofolate reductase inhibitors[32]), some[10][11][12][13] pre-existing bias may exist in the set. […]
(§2) Alternatively, a SYBR Green-based proliferation approach was used for the 72-h assay, as previously described. Briefly, a culture of either synchronized or asynchronous parasitized RBCs (0.3% parasitemia and 4% haematocrit) in screening medium (identical to supplemented medium above except no serum was added) was exposed to serial drug dilutions. Plates were incubated at 37 °C and gassed with 93% N2, 4% CO2 and 3% O2 for 72 h. Following incubation, 10 × SYBR Green I (Invitrogen; supplied in 10,000 × concentration) in lysis buffer ([…], 5 mM EDTA, 0.16% Saponin wt per vol and 1.6% Triton X vol per vol) was added to the wells and the plates were incubated overnight at room temperature before plate reading. EC50 assays were repeated three times, taking the average EC50 value from each assay set, and removing any outliers using a single iteration of Grubbs' test, eliminating values with z-scores above the critical z-value (α=0.05). The raw EC50 values for synchronized parasites assayed in a 384-well format are listed in Supplementary Data 4. The raw EC50 values for asynchronous parasites assayed in a 96 or 1536-well format are listed in Supplementary Data 5.
(§3) EC50 values for each strain were compared with those of the corresponding parent strain to determine fold-shift changes and identify resistance. To minimize the cause variance between assays, all comparisons were conducted between strains assayed under identical conditions. A one-way ANOVA followed by a Dunnet's post-test was conducted in GraphPad Prism to identify significant changes between the parent and resistant strain.

[1] = test system: CYTb-G131S (cytb G131S, parent Dd2); assay: Cross-resistance EC50 assay, CYTb-G131S; format: cell-based, Plasmodium falciparum; conditions: for EC50: Plasmodium falciparum, SYBR green 72 hour assay, synchronized parasites, 384-well format
Description: as §1, §2, §3

P. falciparum strain 3D7 = assay: Asexual blood stage 3H-hypoxanthine incorporation assay, 3D7; format: cell-based, Plasmodium falciparum; conditions: Plasmodium falciparum, 3D7, asexual stage, P. falciparum 3D7; read-out: 3D7 EC50
Protocol: (§4) The 48-h assay was carried out in a 96-well format following standard methods using the ^3H-hypoxanthine incorporation assay. The raw EC50 values corresponding to this assay can be found in Supplementary Data 3. Briefly, this assay relies on the parasite incorporation of labelled hypoxanthine that is proportional to P. falciparum growth. A culture of parasitized RBCs (0.5% parasitemia with a percentage of ring stage higher than 70% of total parasitemia, 2.0% haematocrit) in RPMI-1640, […] and 5 μM hypoxanthine was exposed to drug serial dilutions. Plates were incubated for 24 h at 37 °C, 5% CO2, 5% O2 and 90% N2. After 24 h of incubation, ^3H-hypoxanthine was added and plates were incubated for an additional 24-h period. After that, parasites were harvested on a glass fibre filter using a TOMTEC Cell Harvester 96. Filters were dried and melt-on scintillator sheets were used to determine the incorporation of ^3H-hypoxanthine. Radioactivity was measured using a microbeta counter. Data were normalized using the incorporation of the positive (parasitized RBCs without drug) and negative (same culture with artesunate at 2 μM) controls. All assays were conducted in triplicate using three independently grown cultures, and EC50 values were determined using the XLfit add-in module for Excel (version 2.3.1) from Grafit (version 5.3.1.3), where parameter h is the assay hill slope, x is the compound concentration and y is the inhibition of growth effect. The XLfit equation is: […]

Dd2 = assay: Cross-resistance EC50 assay, Dd2 parent; format: cell-based, Plasmodium falciparum; conditions: for EC50: Plasmodium falciparum
Description: (§5) Multidrug resistance alleles, including mutations in P. falciparum chloroquine resistance transporter (pfcrt) and P. falciparum multi-drug resistance transporter 1 (pfmdr1) are very common in field isolates. Therefore, we sought to assess the degree to which pre-existing resistance alleles would contribute to a loss of potency for this diverse collection of small molecule compounds. Fifteen clones derived from three main parent lines were chosen to maximize diversity in mutated pathways and genetic backgrounds, thus representing the variety of resistance seen in the field: 3D7 (ref. [23]), W2 (ref. [24]) or Dd2 (ref. [25]). The 3D7 line originates from the clone of a Netherlands clinical isolate strain[23][26] and is generally considered to be drug sensitive, though it does convey resistance to sulfadoxine. Conversely, W2 (ref. [24], [27]) and Dd2 (ref. [25]) are multi-drug-resistant lines originating from the Indochina III/CDC isolate, which contain point mutations in pfcrt as well as amplifications in pfmdr1 and GTP cyclohydrolase.
as §1, §2, §3

[2] = test system: DHODH (E182D, parent 3D7); assay: Cross-resistance EC50 assay, DHODH; format: cell-based; conditions: Plasmodium falciparum, SYBR green 72 hour assay, synchronized parasites, 384-well format
Description: as §1, §2, §3

W2 = assay: Cross-resistance EC50 assay, W2 parent; format: cell-based, Plasmodium falciparum; conditions: for EC50: Plasmodium falciparum, 48 h, read-out: W2F6 (PARENT) Average EC50
Description: as §5
To evaluate potential overlapping activity against known antimalarial drug targets, we performed dose-response studies with each compound against our assembled set of drug-resistant lines and their corresponding parents, in an asexual blood stage proliferation assay (Table 1). Comparisons were made to the drug-sensitive strain 3D7 when a parent was unavailable (TM90C2A, W2 and Dd2). As laboratories conducted EC50 assays with different strains and protocols, all comparisons were made between assays from the same laboratory and under the same assay conditions. Compounds displaying >5-fold EC50 shifts relative to the parent or sensitive strain were flagged as having potentially non-novel targets. Average fold shifts per strain ranged from 0.82 to 2.34, with a median of 1.23 indicating there was not common resistance to any one resistant clone. No resistance patterns were observed when classifying the compounds based on chemical structure, but this was not surprising given the diversity of compounds chosen. On the other hand, given that these confirmed compounds were derived from larger unconfirmed hit lists to which some filtration criteria may have been applied (for example, elimination of obvious dihydrofolate reductase inhibitors[32]), some[10][11][12][13] pre-existing bias may exist in the set.
as §4
Alternatively, a SYBR Green-based proliferation approach was used for the 72-h assay, as previously described. […]

[3] = DD2, 72 h, read-out: Dd2 (PARENT) Average EC50
[4] = DD2, 72 h, read-out: Dd2 (PARENT) EC50 (µM) Average EC50

| SMILES | EC50 (hsp90 (D88Y, parent Dd2); DD2, HSP90 strain) [nM] | EC50 ([1]; DD2, CYTb:G131S strain) [nM] | EC50 (P. falciparum strain 3D7) [nM] | EC50 (Dd2; [3]) [µM] | EC50 (Dd2; [4]) [µM] | EC50 ([2]; 3D7, DHODH strain) [nM] | EC50 (hsp90 (D88Y, parent Dd2); strain HSP90 (Dd2 parent)) [nM] | EC50 ([1]; strain CYTb:G131S (Dd2 parent)) [nM] | EC50 (W2) [nM] | EC50 ([2]; strain DHODH (3D7 parent)) [nM] | fold change in EC50, CYTb-G131S vs parent ([1]; resistance, parent Dd2) [fold] | EC50 (Dd2; DD2, read-out: EC50, Dd2 parent) [µM] | potency against W2 strains (W2; compared with 3D7) | EC50 fold-shift, Dd2 compared with 3D7 (Dd2; loss of efficacy) [×] |
| --- | --- | --- | --- | --- | --- | --- | --- | --- | --- | --- | --- | --- | --- | --- |
| COc1ccc(NC(=O)N2CCCCN3[C@H](CN)[C@H](c4ccc(C#Cc5ccccc5)cc4)[C@@H]3C2)cc1 [BRD1095] | 17 | 24 | 40 | 0.013 | 0.00257 | 23 | – | – | – | – | – | – | – | – |
| CCN(CC)CCn1c(=N)n(CC(O)c2ccc(Cl)c(Cl)c2)c2ccccc21.Cl (stereo not shown) [MMV000248] | – | – | 306 | 0.424 | 0.413 | – | 328 | 367 | 605 | 315 | – | – | – | – |
| CCOc1cc2c(cc1OCC)C(c1cc(Cl)ccc1O)NCC2 (stereo not shown) [MMV000478] | – | – | 1070 | 0.803 | 0.843 | – | 1050 | 1370 | 172 | 1450 | – | – | – | – |
| CCCOCc1cc(CN2CCN(c3cccc(Cl)c3)CC2)c(O)c2ncccc12 [MMV000787] | – | – | 942 | 0.588 | 1.59 | – | 476 | 632 | 792 | 467 | – | – | – | – |
| CN1CCN(c2ccc(Nc3c4ccccc4nc4ccccc34)cc2)CC1 [MMV006172] | – | – | 95 | 0.168 | 0.298 | – | 139 | 171 | 227 | 50 | – | – | – | – |
| CCCN(CCC)CC(O)COc1ccccc1C(=O)Nc1ccccc1 (stereo not shown) [MMV006455] | – | – | 530 | 1.21 | 0.408 | – | 2060 | 319 | 106 | 2830 | – | – | – | – |
| COc1cc2cc(C(=O)Nc3ccccc3)c(N)nc2cc1OC [MMV006767] | – | – | 960 | 1.6 | 0.215 | – | 3100 | 1800 | 1820 | 519 | – | – | – | – |
| Cc1cc(Nc2ccc(OCc3ccccc3)cc2)nc2cc(O)ccc12 [MMV007181] | – | – | 346 | 0.186 | 0.19 | – | 120 | 245 | 34 | 206 | – | – | – | – |
| Brc1ccc(Nc2nc3ccccc3nc2Nc2ccc(Br)cc2)cc1 [MMV007224] | – | – | 222 | 0.274 | 0.714 | – | 247 | 285 | 288 | 606 | – | – | – | – |
| Cc1ccc(Cn2c(N3CCC(C(=O)NCc4cccs4)CC3)nc3ccccc32)cc1 [MMV007564] | – | – | 580 | 0.392 | 0.342 | – | 710 | 1300 | 503 | 631 | – | – | – | – |
| Cc1c(C)n(Cc2ccc(F)cc2)c2ccc(C(=O)NCc3ccco3)cc12 [MMV008149] | – | – | 770 | 0.09 | 1.63 | – | 191 | > 5000 | 805 | 401 | > 38 | 0.485 | – | – |
| OC(CNC1CCCCC1)Cn1c2ccccc2c2ccccc21 (stereo not shown) [MMV009063] | – | – | 790 | 0.188 | 0.364 | – | 286 | 412 | 126 | 715 | – | – | – | – |
| CCN(CC)S(=O)(=O)c1ccc(-c2csc(Nc3ccc(C)c(C)c3)n2)cc1 [MMV009108] | – | – | 930 | 0.368 | 0.929 | – | 512 | 494 | 378 | 973 | – | – | – | – |
| COC(=O)c1ccc(C2C3=C(O)CC(c4ccc(F)cc4)CC3=Nc3ccccc3N2C(=O)c2ccccc2)cc1 (stereo not shown) [MMV011438] | – | – | 431 | 0.152 | 0.655 | – | 127 | 336 | 644 | 556 | – | – | – | – |
| Nc1ccc(-c2nc3cc(Oc4ccc(Oc5ccc6[nH]c(-c7ccc(N)cc7)nc6c5)cc4)ccc3[nH]2)cc1 [MMV011895] | – | – | 160 | 0.259 | 0.431 | – | 311 | 328 | 279 | 168 | – | – | – | – |
| COCCNCC(O)Cn1c2ccc(Cl)cc2c2cc(Cl)ccc21 (stereo not shown) [MMV019017] | – | – | 480 | 0.477 | 0.998 | – | 614 | 929 | 138 | 1040 | – | – | – | – |
| CN(C)CCCN(C)C(=O)C1Cc2cc(-c3ccccc3)ccc2N1S(=O)(=O)c1ccccc1 (stereo not shown) [MMV028895] | – | – | – | 0.349 | 6.01 | – | 332 | 390 | 153 | 81 | – | – | maintained potency | 7.1 |
| c1cc(-c2cnc3ccc(-c4ccc(N5CCOCC5)cc4)nn23)ccn1 [MMV668311] | – | – | 48 | 0.056 | 0.039 | – | – | 63 | 29 | 42 | – | – | – | – |
| COc1ccc2c3c([nH]c2c1)[C@H](CO)N(C(C)=O)CC31CCN(C(=O)Nc2ccccc2F)CC1 [MMV673482] | 94 | 182 | – | 0.07 | 0.005 | 151 | – | – | 176 | – | – | – | – | – |
